Key:
Format in all cases: cell-based
[1] = test system: A. niger ATCC 6275; assay: Suspension test EN 1275, fungicidal activity against molds; conditions: 1% active substance in the test
[2] = test system: S. aureus ATCC 6538; assay: Preservation stress test, example formulation 1 (standard emulsion O/W); conditions: 1% active substance
Method in brief: (§1)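 O/W emulsion containing 1% diol (water as placebo), inoculated individually or as mixed culture at 10^5-10^6 CFU/g and held 28 d at 20-25° C. Surviving counts at 0, 2, 7, 14 and 28 d after dilution in neutralising phosphate buffer pH 7.4 with Tween 80/lecithin; expressed as log reduction from initial count.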

[3] = test system: E. coli ATCC 10536; assay: as above; conditions: 1% active substance
Method in brief: as §1

[4] = test system: P. aeruginosa ATCC 15442; assay: as above; conditions: 1% active substance
Method in brief: as §1

[5] = test system: E. coli ATCC 10536, S. aureus ATCC 6538, P. aeruginosa ATCC 15442; assay: Preservation stress test, example formulation 1 (standard emulsion O/W), bacteria together; conditions: 1% active substance, P. aeruginosa (one time series)
Method: Preservation stress tests (PSTs) were carried out in order to determine the preserving activity of the diols. In the preservation stress test, this is simulated through artificial loadings with microorganisms. These can either be inoculated as mixed population or individually in mixtures independent of one another. The inoculated product samples are incubated under defined conditions and, after defined times, samples are taken in order to determine the germ loading. In the case of adequate preservation, the number of microorganisms should, depending on the type, either decrease or remain constant in order to satisfy the requirements specified, e.g. in Ph. Eur. 6.0. To investigate the preserving effect of the diols, application-typical amounts of the diols were incorporated into example formulations. […] [table] These example formulations were used to prepare various mixtures which each comprised 1% active substance or comprised water instead of the active substance as placebo mixtures. These mixtures were in each case inoculated with the test germs such that a germ loading of 10^5-10^6 CFU/g was present in the test mixture. The bacteria were either used individually for the inoculation or as a mixed culture. To determine the starting germ count, immediately after inoculation, an aliquot was taken, diluted in dilution medium (phosphate buffer, 0.07 molar pH 7.4 (+/−0.2), with 1% Tween 80+0.3% soya lecithin), and the surviving germ count was determined in the dilution stages 10^−1 to 10^−3. The inoculated product samples then incubated for a total of 28 d at 20-25° C. After 2 d, 7 d, 14 d and after 28 d, aliquots were taken and diluted in dilution medium (phosphate buffer, 0.07 molar pH 7.4 (+/−0.2), with 1% Tween 80+0.3% soya lecithin). The surviving germ counts were determined in the dilution stages 10^−1 to 10^−4. The reference point taken for determining the reduction in germ count was the respective initial value of the sample. The results were given as logarithmic reductions.

[6] = test system: C. albicans ATCC 10231; assay: Suspension test EN 1275, activity against yeasts; conditions: 1000 ppm of active substance
Method: The fungicidal activity was determined in accordance with European standard EN 1275 and compared with the activities of customary commercial products, with only slight modifications having been carried out. The substances of the formula (1) were dissolved in water or ethanol to give a 1% strength stock solution. To determine the microbicidal activities of the diols against yeasts, the test mixtures were selected such that 1000 ppm of active substance was present in an aqueous solution. For the results shown in table 2, the test mixtures were inoculated with the following yeast and mold strains such that the stated germ densities were present in the test mixtures. C. albicans ATCC 10231 1−2×10^6 CFU/ml The test mixtures were incubated at room temperature (22° C.+/−2° C.). After defined contact times, aliquots of 1 ml were taken in order to determine the surviving germ count. For the deactivation of the microbicidal activity of the diols, the aliquots were diluted in 1:10 dilution steps in a solution of Sabouraud medium with 10% Tween, 3% lecithin, 0.1% histidines and 0.5% sodium thiosulfate and the 10^−2, 10^−3 and 10^−4 dilution stages were used for determining the surviving germ count. For this, corresponding aliquots were plated out on Sabouraud medium with inhibitor and incubated at 30° C. for 2 d. The ascertained surviving germ counts were in each case compared with a mixture containing water (water control) by determining the logarithmic reduction in the surviving germ counts based on the water control.

SMILES: CCCC(O)CO (centres unmarked) [1,2-Pentanediol, 1,2-pentanediol, reference compound]
- Microbicidal activity given as logarithmic reduction in germ count ([1]; contact time 24 h): <1 log. red.
- Microbicidal activity given as logarithmic reduction in germ count ([1]; contact time 7 d): <1 log. red.
- Microbicidal activity given as logarithmic reduction in germ count ([2]; 48 h): 0 log. Red.
- Microbicidal activity given as logarithmic reduction in germ count ([2]; 7 d): 0 log. Red.
- Microbicidal activity given as logarithmic reduction in germ count ([2]; 14 d): 0 log. Red.
- Microbicidal activity given as logarithmic reduction in germ count ([3]; 48 h): 0 log. Red.
- Microbicidal activity given as logarithmic reduction in germ count ([3]; 7 d): 0 log. Red.
- Microbicidal activity given as logarithmic reduction in germ count ([3]; 14 d): 0 log. Red.
- Microbicidal activity given as logarithmic reduction in germ count ([4]; 48 h): 0 log. Red.
- Microbicidal activity given as logarithmic reduction in germ count ([4]; 7 d): ≧3 log. Red.
- Microbicidal activity given as logarithmic reduction in germ count ([4]; 14 d): ≧3 log. Red.

SMILES: OCC1(CO)CC2CCC1C2 (centres unmarked) [2,2-DMNB, 2,2-dimethylolnorbornane]
- Microbicidal activity given as logarithmic reduction in germ count ([5]; 48 h): ≧3 log. Red.
- Microbicidal activity given as logarithmic reduction in germ count ([5]; 7 d): 5 log. Red.
- Microbicidal activity given as logarithmic reduction in germ count ([5]; 14 d): 5 log. Red.
- Microbicidal activity given as logarithmic reduction in germ count ([5]; 28 d): 5 log. Red.

SMILES: OCC1(CO)CCCC1 [DMCP, 1,1-dimethylolcyclopentane]
- Microbicidal activity given as logarithmic reduction in germ count ([5]; 48 h): 3 log. Red.
- Microbicidal activity given as logarithmic reduction in germ count ([5]; 7 d): 5 log. Red.
- Microbicidal activity given as logarithmic reduction in germ count ([5]; 14 d): 5 log. Red.
- Microbicidal activity given as logarithmic reduction in germ count ([5]; 28 d): 5 log. Red.

SMILES: CC(C)C(C)(CO)CO [IMPD, 2-isopropyl-2-methylpropane-1,3-diol]
- Microbicidal activity given as logarithmic reduction in germ count ([5]; 48 h): ≧3 log. Red.
- Microbicidal activity given as logarithmic reduction in germ count ([5]; 7 d): 5 log. Red.
- Microbicidal activity given as logarithmic reduction in germ count ([5]; 14 d): 5 log. Red.
- Microbicidal activity given as logarithmic reduction in germ count ([5]; 28 d): 5 log. Red.

SMILES: CCCCCCCCC(C)(CO)CO [OMPD, 2-octyl-2-methylpropane-1,3-diol]
- Microbicidal activity given as logarithmic reduction in germ count ([1]; contact time 24 h): <1 log. red.
- Microbicidal activity given as logarithmic reduction in germ count ([1]; contact time 7 d): 2.6 log. red.
- Microbicidal activity given as logarithmic reduction in germ count ([5]; 48 h): ≧3 log. Red.
- Microbicidal activity given as logarithmic reduction in germ count ([5]; 7 d): 5 log. Red.
- Microbicidal activity given as logarithmic reduction in germ count ([5]; 14 d): 5 log. Red.
- Microbicidal activity given as logarithmic reduction in germ count ([5]; 28 d): 5 log. Red.
- Microbicidal activity given as logarithmic reduction in germ count ([6]; contact time 5 min): >4 log. red.
- Microbicidal activity given as logarithmic reduction in germ count ([6]; contact time 30 min): >4 log. red.
- Microbicidal activity given as logarithmic reduction in germ count ([6]; contact time 24 h): >4 log. red.

SMILES: CCCCCC(CO)(CO)CCC [PPPD, 2-pentyl-2-propylpropane-1,3-diol]
- Microbicidal activity given as logarithmic reduction in germ count ([1]; contact time 24 h): 2.9 log. red.
- Microbicidal activity given as logarithmic reduction in germ count ([1]; contact time 7 d): >4 log. red.
- Microbicidal activity given as logarithmic reduction in germ count ([5]; 48 h): ≧3 log. Red.
- Microbicidal activity given as logarithmic reduction in germ count ([5]; 7 d): 5 log. Red.
- Microbicidal activity given as logarithmic reduction in germ count ([5]; 14 d): 5 log. Red.
- Microbicidal activity given as logarithmic reduction in germ count ([5]; 28 d): 5 log. Red.
- Microbicidal activity given as logarithmic reduction in germ count ([6]; contact time 5 min): 1.7 log. red.
- Microbicidal activity given as logarithmic reduction in germ count ([6]; contact time 30 min): >5 log. red.
- Microbicidal activity given as logarithmic reduction in germ count ([6]; contact time 24 h): >5 log. red.
